US9751857B2, “Hepatitis B antiviral agents” (NOVIRA THERAPEUTICS, INC., priority 2011, dated 2017)

Assays:
[1] = target: HBV C150Bo capsid protein (HBV CA protein) (Hepatitis B virus genotype D subtype adw, UniProt P03147, C107A/C48A/C61A/R150C); test: HBV assembly assay (fluorescence quenching in vitro assembly); format: biochemical; conditions: at 10 μM
[2] = system: HBV replication in HepG2-2.2.15 cells; test: Dot-blot assay of HBV replication; format: cell-based; conditions: Hepatitis B virus, 144 h
Method: Compounds active in the HBV assembly assay are tested for their activity and toxicity in cellular assay. In the first anti-viral assay, the ability of compounds to inhibit HBV replication in an HBV-producing hepatoma cell line using the dot-blot method is evaluated.
Briefly, confluent monolayers of HepG2-2.2.15 cells are incubated with complete medium containing various concentrations of a test compound. Three days later, the culture medium is replaced with fresh medium containing the appropriately diluted test compound. Six days following the initial administration of the test compound, the cell culture supernatant is collected, and cell lysis is performed. The samples are applied onto Nylos membranes and DNA is immobilized to the membrane by UV cross-linking. After pre-hybridization, the HBV probe is added and the hybridization is performed overnight. The membranes are exposed to the Kodak films; antiviral activity is calculated from the reduction in HBV DNA levels (EC50). The EC50 for antiviral activity is calculated from the dose response curves of active compounds.
In the first anti-viral assay, the ability of compounds to inhibit HBV replication in an HBV-producing hepatoma cell line using the dot-blot method was evaluated.
Confluent monolayers of HepG2-2.2.15 cells were incubated with complete medium containing various concentrations of a test compound. Three days later, the culture medium was replaced with fresh medium containing the appropriately diluted test compound. Six days following the initial administration of the test compound, the cell culture supernatant was collected, and cell lysis was performed. The samples were applied onto Nylos membranes and DNA was immobilized to the membrane by UV cross-linking. After pre-hybridization, the HBV probe was added and the hybridization was performed overnight. The membranes were exposed to the Kodak films; antiviral activity was calculated from the reduction in HBV DNA levels (EC50). The EC50 for antiviral activity was calculated from the dose response curves of active compounds. […]

HBV C150Bo capsid protein (HBV CA protein), sequence (P03147 1-150 C48A/C61A/C107A/R150C): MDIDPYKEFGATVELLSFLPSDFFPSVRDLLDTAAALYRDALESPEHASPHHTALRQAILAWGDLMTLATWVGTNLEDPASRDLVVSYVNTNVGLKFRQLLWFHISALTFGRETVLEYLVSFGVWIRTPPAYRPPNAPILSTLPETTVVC

| Compound | Activity in HBV assembly assay [1] | inhibition at 10 µM [2] [%] |
| --- | --- | --- |
| O=C(Nc1ccc(F)c(Cl)c1)c1cccc(S(=O)(=O)N2CCC(O)(c3cccc(F)c3F)CC2)c1 [compound 775] | + (‘+’ indicates >50% activity at 10 μM) | > 50 |
| O=C(Nc1cc(F)c(F)c(CF)c1)c1cccc(S(=O)(=O)N2CC(O)C2)c1 [compound 803] | + (‘+’ indicates >50% activity at 10 μM) | > 50 |
| O=C(Nc1ccc(F)c(Br)c1)c1cccc(S(=O)(=O)N2CC(O)C(F)C2)c1 (centres unmarked) [compound 826] | + (‘+’ indicates >50% activity at 10 μM) | > 50 |
| O=C(Nc1ccc(F)c(Br)c1)c1cccc(S(=O)(=O)NC2CCCC2O)c1 (centres unmarked) [compound 843] | + (‘+’ indicates >50% activity at 10 μM) | > 50 |
| O=C(Nc1ccc(F)c(Cl)c1)c1cc(S(=O)(=O)N2CCC(O)CC2)ccc1F [compound 885] | + (‘+’ indicates >50% activity at 10 μM) | > 50 |
| O=C(Nc1cc(F)c(F)c(F)c1)c1ccc(F)c(S(=O)(=O)N2CCC(O)CC2)c1 [compound 890] | + (‘+’ indicates >50% activity at 10 μM) | > 50 |
| O=C(Nc1cc(F)c(F)c(F)c1)c1ccc(F)c(S(=O)(=O)N2CCC(CCO)CC2)c1 [compound 900] | + (‘+’ indicates >50% activity at 10 μM) | > 50 |
| O=C(Nc1cc(F)c(F)c(F)c1)c1ccc(F)c(S(=O)(=O)N2CC(O)C2)c1 [compound 901] | + (‘+’ indicates >50% activity at 10 μM) | > 50 |
| O=C(Nc1cc(F)c(F)c(F)c1)c1ccc(F)c(S(=O)(=O)N2CCC(O)C2)c1 (centres unmarked) [compound 903] | + (‘+’ indicates >50% activity at 10 μM) | > 50 |
| O=C(Nc1ccc(F)c(Cl)c1)c1ccc(F)c(S(=O)(=O)N2CCC(CCO)CC2)c1 [compound 914] | + (‘+’ indicates >50% activity at 10 μM) | > 50 |
| O=C(Nc1cc(F)c(F)c(F)c1)c1ccc(F)c(S(=O)(=O)N2CCC(O)(CO)CC2)c1 [compound 916] | + (‘+’ indicates >50% activity at 10 μM) | > 50 |
| COC(=O)c1ccc(C(=O)Nc2cc(F)c(F)c(F)c2)cc1S(=O)(=O)N1CCC(O)CC1 [compound 927] | + (‘+’ indicates >50% activity at 10 μM) | > 50 |
| Cc1ccc(S(=O)(=O)N2CCC(O)CC2)cc1C(=O)Nc1cc(F)c(F)c(F)c1 [compound 928] | + (‘+’ indicates >50% activity at 10 μM) | > 50 |
| O=C(Nc1cc(F)c(F)c(Cl)c1)c1cccc(S(=O)(=O)N2CC(O)C2)c1 [compound 935] | + (‘+’ indicates >50% activity at 10 μM) | > 50 |
| O=C(Nc1ccc(F)c(Cl)c1)c1ccc(F)c(S(=O)(=O)N2CC(O)C2)c1 [compound 953] | + (‘+’ indicates >50% activity at 10 μM) | > 50 |
| O=C(Nc1ccc(F)c(Cl)c1)c1ccc(F)c(S(=O)(=O)NC2CCC(O)C2)c1 (centres unmarked) [compound 958] | + (‘+’ indicates >50% activity at 10 μM) | > 50 |
| O=C(Nc1ccc(F)c(Br)c1)c1ccc(F)c(S(=O)(=O)NC2CCC(O)C2)c1 (centres unmarked) [compound 959] | + (‘+’ indicates >50% activity at 10 μM) | > 50 |
| O=C(Nc1ccc(F)c(Cl)c1)c1ccc(Cl)c(S(=O)(=O)NC2CC(O)C2)c1 (centres unmarked) [compound 1042] | + (‘+’ indicates >50% activity at 10 μM) | > 50 |
| O=C(Nc1cc(F)c(F)c(F)c1)c1ccc(Cl)c(S(=O)(=O)N2CCC(O)CC2)c1 [compound 1057] | + (‘+’ indicates >50% activity at 10 μM) | > 50 |
| O=C(Nc1ccc(F)c(Br)c1)c1ccc(Cl)c(S(=O)(=O)N2CCC(CCO)CC2)c1 [compound 1087] | + (‘+’ indicates >50% activity at 10 μM) | > 50 |

| Compound | Activity in HBV assembly assay [1] | inhibition at 10 µM [2] [%] |
| --- | --- | --- |
| O=C(Nc1ccc(F)c(Br)c1)c1ccc(Cl)c(S(=O)(=O)N2CCC(O)(CO)CC2)c1 [compound 1099] | + (‘+’ indicates >50% activity at 10 μM) | > 50 |
| O=C(Nc1cc(F)c(F)c(F)c1)c1cc(S(=O)(=O)NC2CCCC2O)ccc1Cl (centres unmarked) [compound 1113] | + (‘+’ indicates >50% activity at 10 μM) | > 50 |
| O=C(Nc1ccc(F)c(Cl)c1)c1cc(S(=O)(=O)NC2CCCC2O)ccc1Cl (centres unmarked) [compound 1114] | + (‘+’ indicates >50% activity at 10 μM) | > 50 |
| O=C(Nc1cc(F)c(F)c(F)c1)c1cc(S(=O)(=O)NC2CCCCC2O)ccc1Cl (centres unmarked) [compound 1129] | + (‘+’ indicates >50% activity at 10 μM) | > 50 |
| O=C(Nc1cc(F)c(F)c(F)c1)c1ccc(Cl)c(S(=O)(=O)N2CCC(O)(CO)CC2)c1 [compound 1130] | + (‘+’ indicates >50% activity at 10 μM) | > 50 |
| O=C(Nc1cc(F)c(F)c(F)c1)c1cc(S(=O)(=O)N2CCC(O)CC2)ccc1Cl [compound 1149] | + (‘+’ indicates >50% activity at 10 μM) | > 50 |
| O=C(Nc1cc(F)c(F)c(F)c1)c1cc(S(=O)(=O)N2CC(O)C2)ccc1Cl [compound 1153] | + (‘+’ indicates >50% activity at 10 μM) | > 50 |
| O=C(Nc1ccc(F)c(Cl)c1)c1cccc(S(=O)(=O)NC2CCC(O)C2)c1 (centres unmarked) [compound 1157] | + (‘+’ indicates >50% activity at 10 μM) | > 50 |
| CC1(O)CCN(S(=O)(=O)c2cc(C(=O)Nc3cc(F)c(F)c(F)c3)ccc2F)CC1 [compound 1161] | + (‘+’ indicates >50% activity at 10 μM) | > 50 |
| O=C(Nc1cc(F)c(F)c(F)c1)c1cc(S(=O)(=O)N2CCC(O)(CO)CC2)ccc1Cl [compound 1189] | + (‘+’ indicates >50% activity at 10 μM) | > 50 |
| O=C(Nc1cc(F)c(F)c(F)c1)c1ccc(F)c(S(=O)(=O)N2CCC(O)C(CF)C2)c1 (centres unmarked) [compound 1283] | + (‘+’ indicates >50% activity at 10 μM) | > 50 |
| O=C(Nc1ccc(F)c(F)c1)c1cc(S(=O)(=O)N2CCC(O)CC2)c(F)cc1Cl [compound 1338] | + (‘+’ indicates >50% activity at 10 μM) | > 50 |
| O=C(Nc1cc(F)c(F)c(F)c1)c1cc(S(=O)(=O)N2CC(O)C2)c(F)cc1Cl [compound 1339] | + (‘+’ indicates >50% activity at 10 μM) | > 50 |
| CN(CCO)S(=O)(=O)c1cc(C(=O)Nc2ccc(F)c(Cl)c2)c(Cl)cc1F [compound 1345] | + (‘+’ indicates >50% activity at 10 μM) | > 50 |
| O=C(Nc1cc(F)c(F)c(F)c1)c1cc(S(=O)(=O)N2CCC(O)(CO)CC2)c(F)cc1Cl [compound 1379] | + (‘+’ indicates >50% activity at 10 μM) | > 50 |
| O=C(Nc1ccc(F)c(Cl)c1)c1cc(S(=O)(=O)N2CCC(O)(CO)CC2)c(F)cc1Cl [compound 1380] | + (‘+’ indicates >50% activity at 10 μM) | > 50 |
| O=C(Nc1cc(F)c(F)c(F)c1)c1cc(S(=O)(=O)NC2COCC2O)c(F)cc1Cl (centres unmarked) [compound 1404] | + (‘+’ indicates >50% activity at 10 μM) | > 50 |
| O=C(Nc1ccc(F)c(Cl)c1)c1cc(S(=O)(=O)N2CC(O)C(F)C2)c(F)cc1Cl (centres unmarked) [compound 1410] | + (‘+’ indicates >50% activity at 10 μM) | > 50 |
| O=C(Nc1ccc(F)c(F)c1)c1cc(S(=O)(=O)N2CC(O)C(F)C2)c(F)cc1Cl (centres unmarked) [compound 1413] | + (‘+’ indicates >50% activity at 10 μM) | > 50 |
| O=C(Nc1cc(F)c(F)c(F)c1)c1ccc(CO)c(S(=O)(=O)N2CCC(O)CC2)c1 [compound 1420] | + (‘+’ indicates >50% activity at 10 μM) | > 50 |
